Experimental data reported in patent publication US20210355235A1, “Compositions and Methods For Treating Cancer with Anti-Renalase antibodies and Anti-PD1 antibodies” (YALE UNIVERSITY, priority 2017, published 2021).

Legend:
[1] = tested on: renal ischemia; experiment: renal ischemia and reperfusion in WT mice; assay type: in vivo, mouse; details: 30 minutes of renal ischemia and reperfusion
Method: FIG. 3 is a chart showing that ERK or AKT inhibition abrogates protective effect of renalase peptide: WT mice subjected to sham surgery or to 30 minutes of renal ischemia and reperfusion; RP-[…] or vehicle (saline) injected 10 minutes before renal ischemia. ERK inhibitor PD98059 or the PI3K/AKT inhibitor wortmannin abrogated RP-[…]'s protective effect.

[2] = tested on: MiaPaCa2 cells; details: pretreatment before rRNLS 30 μg/ml

SMILES	effect on RP-H220's protective effect [1]	effect on rRNLS' protective effect [2]
COc1cccc(-c2cc(=O)c3ccccc3o2)c1N [PD98059]	abrogated	
N#CC(=C(/N)Sc1ccccc1N)/C(C#N)=C(\N)Sc1ccccc1N [U0126]		abrogated
